Measurements published in patent publication US20220402916A1, “SMALL MOLECULE INHIBITORS OF KRAS G12C MUTANT” (Merck Sharp & Dohme Corp., priority 2019, published 2022).

Biological target: T1, Biotinylated KRAS G12C protein (Homo sapiens, UniProt P01116, C118S/C51S/C80L/G12C)
T1 construct: 183 amino acids; biotin on K10
Experiment: SOS-catalyzed nucleotide exchange assay
Assay type: biochemical
Conditions: 10,000 nM; 60 minutes of preincubation prior to addition of SOS
Procedure: Compounds are added to this complex, and then after 60 minute incubation time the mixture is treated with recombinant SOS protein and unlabeled GTP. Small molecule inhibitors stabilize the Bodipy-GDP complex whereas the untreated protein rapidly exchanges Bodipy-GDP for unlabeled GTP resulting in reduced TR-FRET signal. […] This mixture is then further diluted to 90 nM in an assay buffer (20 mM HEPES, 150 mM sodium chloride, 10 mM magnesium chloride, and 0.005% Tween) containing 15 nM of Terbium-Streptavidin (Invitrogen, catalog #PV3577) and 900 nM of Bodipy-GDP and incubated at room temperature for six hours. […] Each test compound (10 mM stock in DMSO) is diluted in DMSO to make a 10-point, 3-fold dilution series in a 384-well low dead volume microplate (Labcyte, catalog #LP-0200). Once titrations are made, 10 nL of the diluted compounds is acoustically dispensed into a 384-well assay plate (Corning, catalog #3820) using an Echo 550 (Labcyte). […] Each well then receives 3 μL of 240 nM recombinant human SOS protein and 9 mM GTP (Sigma, G8877) in assay buffer and is incubated at room temperature for 60 minutes. The time-resolved fluorescence resonance energy transfer signal for the assay plate is measured on an Envision (PerkinElmer) plate reader: Excitation filter=340 nm; emission1=495 nm; emission2=520 nm; dichroic mirror=D400/D505; delay time=100 μs. The signal of each well is determined as the ratio of the emission at 520 nm to that at 495 nm. […] The apparent effect as a function of compound concentration is fit to a four parameter logistic equation.

T1 sequence (P01116 with tags, fused parts or gaps isoform P01116-2 G12C/C51S/C80L/C118S): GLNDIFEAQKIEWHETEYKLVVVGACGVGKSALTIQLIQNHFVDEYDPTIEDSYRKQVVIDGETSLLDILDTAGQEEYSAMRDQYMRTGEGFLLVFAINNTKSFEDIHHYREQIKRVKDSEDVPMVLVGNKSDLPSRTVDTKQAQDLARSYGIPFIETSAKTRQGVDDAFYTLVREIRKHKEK

First: C=CC(=O)N1CCN(c2cc(C(=O)N(C)CCN(C)C)nc3c2CCN(c2cccc4cccc(C)c24)C3)CC1 [Compound 15, 4-(4-acryloylpiperazin-1-yl)-N-(2-(dimethylamino)ethyl)-N-methyl-7-(8-methylnaphthalen-1-yl)-5,6,7,8-tetrahydro-1,7-naphthyridine-2-carboxamide]
Second: C=CC(=O)N1CCN(c2cc(C(=O)NC(C)(C)CN(C)C)nc3c2CCN(c2cccc4cccc(C)c24)C3)CC1 [Compound 17, 4-(4-acryloylpiperazin-1-yl)-N-(1-(dimethylamino)-2-methylpropan-2-yl)-7-(8-methylnaphthalen-1-yl)-5,6,7,8-tetrahydro-1,7-naphthyridine-2-carboxamide]
The inhibition at 10 µM of the first is higher: 33% for the first, 16% for the second.

First: C=CC(=O)N1CCN(c2cc(C(=O)N[C@H]3COC[C@@H]3N3CCOCC3)nc3c2CCN(c2cccc4cccc(C)c24)C3)CC1 (racemic) [Compound 35, rac-4-(4-acryloylpiperazin-1-yl)-7-(8-methylnaphthalen-1-yl)-N-(trans-4-morpholinotetrahydrofuran-3-yl)-5,6,7,8-tetrahydro-1,7-naphthyridine-2-carboxamide]
Second: C=CC(=O)N1CCN(c2cc(C(=O)NCC3CN(C)CCO3)nc3c2CCN(c2cccc4cccc(C)c24)C3)CC1 (racemic) [Compound 55, rac-4-(4-acryloylpiperazin-1-yl)-N-((4-methylmorpholin-2-yl)methyl)-7-(8-methylnaphthalen-1-yl)-5,6,7,8-tetrahydro-1,7-naphthyridine-2-carboxamide]
The inhibition at 10 µM of the first is higher: 39% for the first, 31% for the second.

For `C=CC(=O)N1CCN(c2cc(C(=O)NC(CC(C)C)CN(C)C)nc3c2CCN(c2cccc4cccc(C)c24)C3)CC1` (racemic) [Compound 20, rac-4-(4-acryloylpiperazin-1-yl)-N-(1-(dimethylamino)-4-methylpentan-2-yl)-7-(8-methylnaphthalen-1-yl)-5,6,7,8-tetrahydro-1,7-naphthyridine-2-carboxamide], the inhibition at 10 µM was 30%.

Same assay, conditions: apparent potency; preincubation time of 60 minutes prior to addition of SOS

Going from `C=CC(=O)N1CCN(c2cc(C(=O)N3CCCCC3CN3CCCC3)nc3c2CCN(c2cccc4cccc(C)c24)C3)CC1` (racemic) [Compound 46, rac-1-(4-(7-(8-methylnaphthalen-1-yl)-2-(2-(pyrrolidin-1-ylmethyl)piperidine-1-carbonyl)-5,6,7,8-tetrahydro-1,7-naphthyridin-4-yl)piperazin-1-yl)prop-2-en-1-one] to `C=CC(=O)N1CCN(c2cc(C(=O)N3CCC[C@@H]3CN3CCCC3)nc3c2CCN(c2cccc4cccc(C)c24)C3)CC1` [Compound 42, (R)-1-(4-(7-(8-methylnaphthalen-1-yl)-2-(2-(pyrrolidin-1-ylmethyl)pyrrolidine-1-carbonyl)-5,6,7,8-tetrahydro-1,7-naphthyridin-4-yl)piperazin-1-yl)prop-2-en-1-one], the IC50 falls from 8880 nM to 3770 nM (2.4-fold).

`C=CC(=O)N1CCN(c2cc(C(=O)NC3CN(C)C3)nc3c2CCN(c2cccc4cccc(C)c24)C3)CC1` [Compound 48, 4-(4-acryloylpiperazin-1-yl)-N-(1-methylazetidin-3-yl)-7-(8-methylnaphthalen-1-yl)-5,6,7,8-tetrahydro-1,7-naphthyridine-2-carboxamide] and `C=CC(=O)N1CCN(c2cc(C(=O)NC3CCCN(C)C3)nc3c2CCN(c2cccc4cccc(C)c24)C3)CC1` (racemic) [Compound 52, rac-4-(4-acryloylpiperazin-1-yl)-7-(8-methylnaphthalen-1-yl)-N-(1-methylpiperidin-3-yl)-5,6,7,8-tetrahydro-1,7-naphthyridine-2-carboxamide] are within 1.5-fold of each other in IC50: 7290 nM for the first, 5500 nM for the second.

Compared with `C=CC(=O)N1CCN(c2cc(C(=O)NCC(C)N(C)C)nc3c2CCN(c2cccc4ccccc24)C3)CC1` (racemic) [Compound 5, rac-4-(4-acryloylpiperazin-1-yl)-N-(2-(dimethylamino)propyl)-7-(naphthalen-1-yl)-5,6,7,8-tetrahydro-1,7-naphthyridine-2-carboxamide], `C=CC(=O)N1CCN(c2cc(C(=O)NC(C)CN(C)C)nc3c2CCN(c2cccc4ccccc24)C3)CC1` (racemic) [Compound 6, rac-4-(4-acryloylpiperazin-1-yl)-N-(1-(dimethylamino)propan-2-yl)-7-(naphthalen-1-yl)-5,6,7,8-tetrahydro-1,7-naphthyridine-2-carboxamide] is 3.6-fold lower in IC50: 6020 nM for the first, 1690 nM for the second.

First: C=CC(=O)N1CCN(c2cc(C(=O)N[C@H]3COC[C@H]3N)nc3c2CCN(c2cccc4cccc(C)c24)C3)CC1 (racemic) [Compound 28, rac-4-(4-acryloylpiperazin-1-yl)-N-(cis-4-aminotetrahydrofuran-3-yl)-7-(8-methylnaphthalen-1-yl)-5,6,7,8-tetrahydro-1,7-naphthyridine-2-carboxamide]
Second: C=CC(=O)N1CCN(c2cc(C(=O)N[C@H]3COC[C@@H]3N)nc3c2CCN(c2cccc4cccc(C)c24)C3)CC1 (racemic) [Compound 36, rac-4-(4-acryloylpiperazin-1-yl)-N-(trans-4-aminotetrahydrofuran-3-yl)-7-(8-methylnaphthalen-1-yl)-5,6,7,8-tetrahydro-1,7-naphthyridine-2-carboxamide]
The IC50 of the first is 4.8-fold higher: 7320 nM for the first, 1520 nM for the second.

Compared with `C=CC(=O)N1CCN(c2cc(C(=O)NCC3CCCN(C)C3)nc3c2CCN(c2cccc4cccc(C)c24)C3)CC1` (racemic) [Compound 56, rac-4-(4-acryloylpiperazin-1-yl)-7-(8-methylnaphthalen-1-yl)-N-((1-methylpiperidin-3-yl)methyl)-5,6,7,8-tetrahydro-1,7-naphthyridine-2-carboxamide], `C=CC(=O)N1CCN(c2cc(C(=O)N[C@H](C)CN3CCOCC3)nc3c2CCN(c2cccc4cccc(C)c24)C3)CC1` [Compound 24, (R)-4-(4-acryloylpiperazin-1-yl)-7-(8-methylnaphthalen-1-yl)-N-(1-morpholinopropan-2-yl)-5,6,7,8-tetrahydro-1,7-naphthyridine-2-carboxamide] is 2.4-fold lower in IC50: 3650 nM for the first, 1490 nM for the second. The second is the more potent here.

`C=CC(=O)N1CCN(c2cc(C(=O)NC3CCCC(N(C)C)C3)nc3c2CCN(c2cccc4cccc(C)c24)C3)CC1` (racemic) [Compound 40, rac-(cis,trans)-4-(4-acryloylpiperazin-1-yl)-N-(3-(dimethylamino)cyclohexyl)-7-(8-methylnaphthalen-1-yl)-5,6,7,8-tetrahydro-1,7-naphthyridine-2-carboxamide] and `C=CC(=O)N1CCN(c2cc(C(=O)N[C@H]3COC[C@@H]3N(C)C)nc3c2CCN(c2cccc4cccc(C)c24)C3)CC1` (racemic) [Compound 32, rac-4-(4-acryloylpiperazin-1-yl)-N-(trans-4-(dimethylamino)tetrahydro-furan-3-yl)-7-(8-methylnaphthalen-1-yl)-5,6,7,8-tetrahydro-1,7-naphthyridine-2-carboxamide] are within 1.5-fold of each other in IC50: 3540 nM for the first, 4470 nM for the second.

Going from `C=CC(=O)N1CCN(c2cc(C(=O)N[C@@H]3C[C@@H]3N)nc3c2CCN(c2cccc4cccc(C)c24)C3)CC1` (racemic) [Compound 38, rac-4-(4-acryloylpiperazin-1-yl)-N-(cis-2-aminocyclopropyl)-7-(8-methylnaphthalen-1-yl)-5,6,7,8-tetrahydro-1,7-naphthyridine-2-carboxamide] to `C=CC(=O)N1CCN(c2cc(C(=O)NCCN(C)C)nc3c2CCN(c2cccc4cccc(C)c24)C3)CC1` [Compound 13, 4-(4-acryloylpiperazin-1-yl)-N-(2-(dimethylamino)ethyl)-7-(8-methylnaphthalen-1-yl)-5,6,7,8-tetrahydro-1,7-naphthyridine-2-carboxamide], the IC50 falls from 4770 nM to 826 nM (5.8-fold). The second is the more potent here.

Going from `C=CC(=O)N1CCN(c2cc(C(=O)N[C@H]3CCC[C@@H]3N3CCOCC3)nc3c2CCN(c2cccc4cccc(C)c24)C3)CC1` (racemic) [Compound 34, rac-4-(4-acryloylpiperazin-1-yl)-7-(8-methylnaphthalen-1-yl)-N-(trans-2-morpholinocyclopentyl)-5,6,7,8-tetrahydro-1,7-naphthyridine-2-carboxamide] to `C=CC(=O)N1CCN(c2cc(C(=O)N[C@@H](C)CN(C)C)nc3c2CCN(c2cccc4cccc(C)c24)C3)CC1` [Compound 14, (S)-4-(4-acryloylpiperazin-1-yl)-N-(1-(dimethylamino)propan-2-yl)-7-(8-methylnaphthalen-1-yl)-5,6,7,8-tetrahydro-1,7-naphthyridine-2-carboxamide], the IC50 falls from 3570 nM to 614 nM (5.8-fold).

Compared with `C=CC(=O)N1CCN(c2cc(C(=O)NCCN3CCCC3)nc3c2CCN(c2cccc4ccccc24)C3)CC1` [Compound 1, 4-(4-acryloylpiperazin-1-yl)-7-(naphthalen-1-yl)-N-(2-(pyrrolidin-1-yl)ethyl)-5,6,7,8-tetrahydro-1,7-naphthyridine-2-carboxamide], `C=CC(=O)N1CCN(c2cc(C(=O)NC(CN(C)C)C(C)C)nc3c2CCN(c2cccc4cccc(C)c24)C3)CC1` (racemic) [Compound 18, rac-4-(4-acryloylpiperazin-1-yl)-N-(1-(dimethylamino)-3-methylbutan-2-yl)-7-(8-methylnaphthalen-1-yl)-5,6,7,8-tetrahydro-1,7-naphthyridine-2-carboxamide] is 27-fold lower in IC50: 3920 nM for the first, 145 nM for the second. The second is the more potent here.
